Reference: ChEMBL document CHEMBL3507680, “University of Dundee, Gates Library screen for HepG2 cell viability”

experiment: Human HepG2 cell viability assay in 384 well format; format: toxicity, cell-based; set-up: dose 125 nL, time 70.5 hour; cytotoxicity at 70.5 h: concentration not given beside the values; settings: HepG2 cells, read-out: Inhibition

Compound | cytotoxicity at 70.5 h
CC(C)c1nccn1C1CCCN(C(=O)c2cnc[nH]2)C1 (stereo unspecified) | 3.72%
CCC(CO)N(Cc1ccc(F)cc1)Cc1c(C)nn(C)c1Cl (stereo unspecified) | -3.37%
CN1CCC2(CCN(CC3CCOCC3)CC2)C1=O | -10.4%
CN1CC2(CCN(c3nc(N)nc4c3CCNC4)CC2)OC1=O | -8.95%
COCCn1c(=O)n(Cc2ccc(Cl)s2)c2cc(C(=O)O)ccc21 | -10.7%
Cc1ncoc1C(=O)N1CC[C@@H](O)[C@@H](O)[C@H](N2CCC(F)(F)CC2)C1 | -2.42%
CCNc1ncc(C(=O)NCc2ccc3nsnc3c2)cn1 | 0.938%
COc1ccc(CCC(=O)N(C(C)C)C2CCOCC2)cc1 | -6.93%
CC1c2ncc(COc3cccnc3)n2CCN1C(=O)C1=CCCCC1 (stereo unspecified) | -14.2%
COCCN1C(=O)CCC12CCCN(Cc1ccccc1F)C2 (stereo unspecified) | 31.9%
CSCc1ccc(CNCCCN2CCOCC2)o1 | -12.3%
CSc1nccc(N2CCC(NCc3ccc4c(c3)OCO4)CC2)n1 | 4.69%
N#Cc1cnc(NC2CCN(C(=O)C3CCCCC3)CC2)c(Cl)c1 | -0.508%
Cc1cnc2c(C(=O)N3CCCC(OCc4ccccn4)C3)cnn2c1 (stereo unspecified) | -7.53%
CC(C)CN1Cc2nc(N3CCCC3)ncc2C1=O | 19.8%
CCCc1cc(=O)[nH]c2nnc(SCC(=O)OCC)n12 | -9.96%
Cc1cc(C)nc(NC2CCOC3(CCCC3)C2)n1 (stereo unspecified) | 3.01%
COc1cccc(NC(=O)c2nc3ccccc3n(C)c2=O)c1 | -6.23%
Cc1ccc(N2CCc3ncnc(N(C)C)c3CC2)nn1 | -6.25%
O=C1NC2(CCN(CC(=O)N3CCOCC3)CC2)Nc2ccc(Br)cc21 | -2.15%
CC(C)c1nc(C2CCCN2CC(=O)N2CCNC2=O)no1 (stereo unspecified) | -3.44%
CCOCc1ccccc1NC(=O)NCC(C)(O)c1cc(C)oc1C (stereo unspecified) | -1.67%
CCCN1CCC2(CC1)CN(C(=O)c1cccnc1)c1ccc(F)cc12 | -8.65%
CCCN(CCC)C(=O)c1sc(C)nc1C | -7.05%

Compound | cytotoxicity at 70.5 h
CC(C)(C)n1nnnc1CN(CCc1ccccc1)Cc1ccccc1 | 1.44%
N#Cc1cccnc1N[C@@H]1c2ccccc2C[C@@H]1O | -16.4%
CC(C)N1CCC(CC(=O)NC(C(=O)O)c2cccc(F)c2)CC1 (stereo unspecified) | -5.14%
Clc1cccc(-c2noc(CCN3CCN(c4ccncc4)CC3)n2)c1 | 4%
CC(=O)NCCNC(=O)CN1CCCC(Cn2cncn2)C1 (stereo unspecified) | -4.84%
COCCNCc1cc2c(C)cc(C)cc2n2c(=O)n(C)nc12 | 2.41%
Cc1nccn1CCN1C(=O)CC2(CCCC2)CC1=O | -9%
O=C(C1CCCC1)N1CCC(Nc2ccncn2)CC1 | -3.92%
Oc1cccc(CN2C[C@H]3CC[C@@H]2CN(Cc2ccc(F)cc2)C3)c1 | -1.41%
CC(C)CC1CC(=O)Nc2c1cnn2Cc1ccco1 (stereo unspecified) | -22.8%
Cc1ccc(-c2cc(C(=O)NCCCc3csc(N)n3)[nH]n2)s1 | -3.12%
Cc1ccc(CCC(=O)N(C)CCN2CCOCC2)c(C)c1 | -0.456%
CS(=O)(=O)CCCNc1cccc(COC2CCCCC2)c1 | -12.7%
Fc1cnc(N2CCO[C@H]3[C@H](OCCN4CCCC4)CC[C@@H]32)nc1 | -8.48%
Cc1oc(CN(C)C(=O)c2ccc(C(F)(F)F)cc2)cc1C(=O)O | -6.23%
Cc1cc(C)c2c(c1)C(NCc1nnc3n1CCC3)CCCO2 (stereo unspecified) | -5.63%
O=C(Cc1cccc2ccccc12)N1CCC(Nc2cccnn2)CC1 | -7.06%
NC(=O)c1c(-c2ccc(Cl)cc2Cl)csc1NC(=O)CCC(=O)O | 20.5%
COCCN1CCC(C(=O)N(C)CCOc2ccc(C)cc2Cl)C1 (stereo unspecified) | 20.7%
Cc1noc(CN2CCN(C(=O)c3ccccn3)CC2)n1 | -8.75%
CCN1CCN(C(=O)CCC2CCN(C(C)CCC(=O)OC)CC2)CC1 (stereo unspecified) | 8.92%
Cc1nn(-c2ccccc2)nc1C(=O)NCC(c1ccco1)N(C)C (stereo unspecified) | -15.6%
CC(=O)NC1CCCN(C(=O)NCCOc2ccc3c(c2)OCO3)C1 (stereo unspecified) | -10.3%
O=C(NC1CCCC1)N1CCCCC1c1nc(C2CC2)no1 (stereo unspecified) | -15.1%

Compound | cytotoxicity at 70.5 h
Cc1cc(C)c2cc(C(=O)N3CCNC(=O)C3)[nH]c2c1 | -8%
Cc1cc(NC(=O)CNc2cccc(OC(F)F)c2C)n(C)n1 | -6.65%
O=C(NC1CCc2nccn2C1)c1ccc(OCC2CC2)nc1 (stereo unspecified) | -7.7%
NC(=O)c1cc(NC(=O)N2CCCCCC2)ccc1F | 35.1%
C[C@H](O)CNc1cc(-c2ccncc2)ncn1 | -0.809%
Cc1nc(CN2CCC3(CCN(c4cnn(C)c4)C3=O)C2)cs1 (stereo unspecified) | -14.5%
Cc1cc(O)nc(C2CN(CCO)CCO2)n1 (stereo unspecified) | 8.3%
O=C(Cn1cc(I)cn1)Nc1cccnc1 | -9.49%
CC(NCCCN1CCCC1=O)c1cc(Br)ccc1O (stereo unspecified) | -5.37%
COc1cc(-n2cccc2)c(Cl)cc1C(=O)NS(C)(=O)=O | 6%
Cc1cccc(C)c1OC1CN(Cc2cnc(N3CCCC3)nc2)C1 | 27.2%
Cc1nnc(CN(Cc2ccco2)Cc2cccc3c2OCO3)n1C | -6.18%
O=C(N[C@@H]1CCC[C@@H](N2CCOCC2)[C@@H]1O)c1cc2ccccc2[nH]1 | -5.17%
O=C(c1ccc[nH]1)N1CCC2(CC1)C(=O)Nc1ccccc12 | -14.9%
CCn1c(C)nnc1SCCNC(=O)c1cnc(N(C)C)nc1C | -2.09%
CC1CN(C(=O)NCc2cccc(C#N)c2)CCN1CC(F)(F)F (stereo unspecified) | -7.28%
O=C(c1cccs1)N1CCN(CC2CC2)c2ncccc2C1 | -21%
O=C(NCC1SCCc2ccccc21)c1cscn1 (stereo unspecified) | -13.5%
O=C(N1CCOCC1)N1CCC2(CCNC2)C1 (stereo unspecified) | -3.15%
COc1cccc(CCC(=O)N2CCN(Cc3noc(C)n3)CC2)c1 | -0.347%
OC(COc1ccc(F)cc1)CN1CCC(c2ccn[nH]2)CC1 (stereo unspecified) | -9.19%
CC(C)c1nnc(CN2CCCc3ccc(S(N)(=O)=O)cc32)o1 | -0.377%
COc1cccc(CN2CC[C@H]3[C@@H](C2)[C@H](c2ccsc2)CN3C(C)=O)c1 | 28.6%
CCc1csc(CNC2CCN(c3ccc(C)cc3)CC2)n1 | 2.12%

Compound | cytotoxicity at 70.5 h
Cc1ccc(NC(=O)Cn2ccc3c(=O)n(C)ccc32)cc1F | -5.99%
Cc1ccc(NC(C)C(=O)NCc2cccs2)cc1Cl (stereo unspecified) | 5.9%
O=C(NCc1cn2c(n1)SCC2)c1cn(CCN2CCCCC2)nn1 | 17.2%
CC(C(=O)N1CCCN(c2ncccc2C#N)CC1)n1cccn1 (stereo unspecified) | -9.79%
Fc1ccc(OCCCNC2=NCCCN2)cc1 | -5.27%
c1cnnc(N2CCCC2CNc2ncnc3ccccc23)c1 (stereo unspecified) | 11.3%
O=C(CCc1ccccc1)C1CCCN(C(=O)c2cncc(Cl)c2)C1 (stereo unspecified) | -25.5%
Cc1cnn(CCNCc2ccc(C#N)cc2)c1 | -1.47%
O=C1N(c2ccccc2)Cc2n[nH]c(=O)n21 | -0.951%
CN1CCN(c2cc(Sc3cccs3)nc(N)n2)CC1CCO (stereo unspecified) | -7.97%
CC(Cn1ccnc1)NCc1n[nH]c2c1CCC2 (stereo unspecified) | -20.8%
CCc1noc(CNc2cc3c(cc2Cl)OCCCO3)n1 | -11%
COC(=O)NCC(=O)N1CCCC(c2ncc[nH]2)C1 (stereo unspecified) | -27.3%
O=C(CSc1nc2c(cnn2CCO)c(=O)[nH]1)N1CCCCCC1 | 13.2%
CN(C)Cc1cn2c(n1)CN(C1CCOC1)CC2 (stereo unspecified) | -1.23%
CC(=O)N1CCCN(C(=O)c2oc(Br)cc2C)CC1 | -3.38%
CC1CN(Cc2cnn(C)c2)CCN1c1ccc2nncn2n1 (stereo unspecified) | -14.4%
CCN1CCN(C(=O)c2cnc(Cc3c(Cl)cccc3Cl)nc2O)CC1 | -4.18%
CN(CC1Cc2ccccc2CN1C)C(=O)CSc1ccccn1 (stereo unspecified) | -15.7%
CS(=O)(=O)NC(=O)CCc1cccc(OC2CCCC2)c1 | -5.51%
N#CC1(C(=O)N2Cc3cc(-c4cc[nH]n4)ccc3C2c2cnco2)CC1 (stereo unspecified) | 1.75%
NC(=O)c1ccc2c(c1)nc1n2CCN(Cc2cccnc2)C1 | -1.68%
CN(C)c1ccnc(N2CCC(NCCOc3ccccc3)CC2)n1 | 19.6%
COCCNC(=O)C1CN(C(N)=O)Cc2ccnn2C1 (stereo unspecified) | -8.89%

Compound | cytotoxicity at 70.5 h
Nc1nc(N2CCCCC2)ncc1C(=O)NCc1ccc(F)c(Cl)c1 | -20%
NC(=O)CC1CCN(C(=O)c2cccn2Cc2cccs2)CC1 | 3.87%
Cc1ccsc1C(=O)Nc1cnn(CC(=O)NC2CCCC2)c1 | 23.1%
Cc1ccc(NC(=O)Cn2ncc(SCC(N)=O)c(Cl)c2=O)c(F)c1 | -17.2%
Cc1ccc(CN2CCC3(CC(=O)N(c4cccc(F)c4)C3)C2)o1 (stereo unspecified) | -17.4%
O=C(C1CCOCC1)N1CCc2ncc(CN3CCCC3)n2CC1 | -13.2%
Cc1nn(C)c(N(C)C)c1CNCc1cccc(Cl)c1 | 0.245%
COc1ccc(-c2nc(C#N)c(N(C)C)o2)cc1S(=O)(=O)N1CCCC1 | 14.1%
CN(C)c1ccc(C(=O)N2CCC(c3cc4cnccc4[nH]3)CC2)cc1 | -0.667%
CC(C)Nc1cc(N2CCN(Cc3ccccc3)C(CCO)C2)ncn1 (stereo unspecified) | -1.73%
O=C(NCc1ccco1)[C@H]1CC[C@@H]2[C@@H](CCN2C2CCC2)O1 | -15.1%
CCOC(C)c1noc(CN2CCN(c3nnc(C)s3)CC2)n1 (stereo unspecified) | -4.45%
CSc1ccccc1C(C(=O)O)N(C)CC1CCOCC1 (stereo unspecified) | 3.4%
CC(C)c1nc(CN2CCCN(c3nccs3)CC2)no1 | 6.41%
NC(=O)NCCC(=O)N1CCC(c2cc(-c3ccccc3Cl)n[nH]2)CC1 | -1.52%
c1ccc(CN2CCc3c(CNc4nccs4)n[nH]c3C2)nc1 | -16.9%
COC(=O)CSc1nnc(CCNC(=O)OC(C)(C)C)o1 | -4.92%
Cc1nnc(NC(=O)N2CCN(Cc3ccc(F)cc3)C(=O)C2)s1 | 1.21%
c1ccc(COC[C@@]23CCC[C@@H]2CN(Cc2ccccn2)C3)nc1 | 0.536%
O=C(Cc1ccccc1)N1CC(=O)N(Cc2ccco2)CC(O)C1 (stereo unspecified) | 0.111%
